Measured values from the NIST ThermoML archive (doi:10.1016/j.jct.2016.03.038).
± gives the expanded uncertainty stated by the source.

Test: mn = molality of the nth substance listed, in mol/kg
Details: Liquid, isochoric method

C [methane] + CCCCCC
Details | mass density [kg/m3]
273.1 K, 2850 kPa, m1 = 2.157 | 655 ± 9
273.1 K, 3620 kPa, m1 = 2.812 | 648 ± 9
273.1 K, 4700 kPa, m1 = 3.805 | 638 ± 9
273.1 K, 5670 kPa, m1 = 4.686 | 628 ± 9
273.1 K, 6920 kPa, m1 = 6.031 | 616 ± 9
273.1 K, 7900 kPa, m1 = 7.195 | 604 ± 9
273.1 K, 9190 kPa, m1 = 8.724 | 596 ± 9
283.15 K, 2500 kPa, m1 = 1.717 | 650 ± 9
283.15 K, 3570 kPa, m1 = 2.568 | 640 ± 10
283.15 K, 4740 kPa, m1 = 3.533 | 632 ± 12
283.15 K, 5840 kPa, m1 = 4.499 | 620 ± 11
283.15 K, 7010 kPa, m1 = 5.615 | 610 ± 9
283.15 K, 8560 kPa, m1 = 7.345 | 594 ± 9
293.15 K, 2360 kPa, m1 = 1.513 | 643 ± 9
293.15 K, 3340 kPa, m1 = 2.229 | 635 ± 9
293.15 K, 4410 kPa, m1 = 3.042 | 627 ± 11
293.15 K, 5620 kPa, m1 = 4.008 | 615 ± 9
293.15 K, 6860 kPa, m1 = 5.098 | 604 ± 9
293.15 K, 8400 kPa, m1 = 6.638 | 590 ± 9
